Data: patent US12275684B2, “Methods for making and using endoxifen” (Atossa Therapeutics, Inc., priority 2017, dated 2025)
Read-outs that look alike come from different tables or passages of the source. Blank lines part the entries; values can stand above or below the molecule they belong to.

Legend:
[1] = Placebo controlled, dose escalation pharmacokinetic study of oral (Z)-Endoxifen capsules (serum endoxifen; incl. accumulation ratios and dose linearity); format: in vivo, human
Excerpt: An objective of the study was to assess the safety and tolerability of oral (Z)-Endoxifen when administered […] orally as a capsule to healthy female volunteers. A secondary objective was to assess the pharmacokinetics of multiple doses of oral (Z)-Endoxifen in the subjects.
Generally, healthy female volunteers aged ≥18 years and ≤65 years were enrolled. 24 participants were enrolled in 3 cohorts and will be administered study drug orally. Three dose levels of orally administered (Z)-Endoxifen were investigated in 3 cohorts. In each cohort participants were randomized to receive an oral (Z)-Endoxifen or placebo in a blinded fashion. Enteric-resistant capsules used in the study were designed as delayed release capsules to resist rupture for at least 30 minutes, but typically, for about 2 hours, under gastric conditions and then open fully in intestinal fluid (DRCaps; Capsugel, a Lonza Company, USA). Enteric-resistant (Swedish Orange size Zero (0); Capsugel, USA) DRCaps capsules manually filled with 1, 2 or 4 mg of (Z)-endoxifen neat in compliance with GMP requirements were used. Placebo capsules contained microcrystalline cellulose an inert common capsule and tablet excipient.
Each cohort enrolled 8 participants, with 6 participants receiving (Z)-Endoxifen 1 mg capsules orally at 1 mg (Cohort 1), 2 mg (Cohort 2) or 4 mg (Cohort 3) doses and 2 participants receiving matching placebo capsules. In Cohort 1 (Dose Level=1 mg) two participants (sentinels) were dosed 24 hours prior to the remaining participants. One sentinel was dosed with (Z)-Endoxifen and the other with placebo. The remaining six participants in Cohort 1 were dosed as no safety concerns were identified in the sentinel participants. The non-sentinel participants in Cohort 1 were admitted to the clinical research facility at least one day later than the sentinels. There were no sentinels in Cohorts 2 and 3.
Participant engagement in this study was for a period of 56 days. These included a 28 day screening period, and a 7 day post treatment period for Pharmacokinetic (PK) sampling. There were two confinement periods, one at the beginning and one at the end of the dosing periods. Participants were confined to the clinical facility on Days-1 through to Day 2 and Days 21 and 22. If participants were to experience any clinically significant adverse events during the study, they would have been required to remain in the clinical facility for further observation at the discretion of the Principal Investigator (PI).
Healthy female volunteers were screened within 28 days prior to commencement of dosing. Participants were admitted to the clinical facility on Day-1 for up to 3 days. The first dose of (Z)-Endoxifen or placebo capsules was administered on Day 1. Following completion of all safety assessments and sampling for PK analyses, participants were discharged from the clinical facility on Day 2. The first dose on Day 1 was followed by a 6-day treatment free period (Days 2-7). Each participant returned to the clinical facility for PK blood draws and safety assessments during the treatment free period on study Days 4 and 6. On Day 8 participants commenced daily administration of (Z)-Endoxifen capsules or placebo capsules for 14 consecutive days (Days 8-21). Participants were supplied with study drug capsules and asked to self administer daily. Participants visited the clinical facility on Days 11, 14 and 17, prior to dose administration, for PK blood draws and safety assessments. On the morning of Day 21 each participant returned to the clinical facility prior to dose administration and were confined to the facility until Day 22 to allow for the collection of PK blood draws and safety assessments. The Day 21 dose was the last administration of study drug. Participants were discharged from the clinical facility on Day 22 and returned for PK blood draws and safety assessments on study Days 24, 26, and 28. […]

[2] = cited from earlier work; for predicted t90 for 10% conversion to (E)-endoxifen: solid state
[3] = cited from earlier work

dose linearity β Estimate ([1]; AUC24 hr (log), Day 1): 0.873
dose linearity β Estimate ([1]; AUC24 hr (log), Day 21): 1.008
dose linearity β Estimate ([1]; Cmax (log), Day 1): 0.808
dose linearity β Estimate ([1]; Cmax (log), Day 21): 1.055
Structure (SMILES): CC/C(=C(\c1ccc(O)cc1)c1ccc(OCCNC)cc1)c1ccccc1 [Endoxifen]

Structure (SMILES): CC/C(=C(\c1ccc(O)cc1)c1ccc(OCCNC)cc1)c1ccccc1.Cl [(Z)-endoxifen HCl]
t90 ([2]; aqueous medium, 45° C.): 9 days
predicted t90 for 10% conversion to (E)-endoxifen ([2]; 25° C./60% RH): 53 months
predicted t90 for 10% conversion to (E)-endoxifen ([2]; 40° C./75% RH): 4.3 months

Structure (SMILES): CC/C(=C(\c1ccccc1)c1ccc(OCCN(C)C)cc1)c1ccccc1 [tamoxifen, (Z)-2-[4-(1,2-diphenyl-1-butenyl)phenoxy]-N,N-dimethylethanamine]
Terminal elimination half life ([3]; in vivo): 120 to 170 h
peak concentration time ([3]; post-dose): approximately 5 hours
